Laboratory results from US20080145465A1, “Sesquiterpene lactone extract from artemisia leucodes for reducing inflammation and down-regulating pro-inflammatory gene expression” (priority 2006, published 2008).
pIC50: −log10 of the molar value. Several values for one entry are separate records, joined by “and”; a condition that tells them apart may be missing. Equal values may be shown once. Entries after “also recorded” stand apart in the source; their conditions may differ. Read-outs that look alike come from different tables or passages of the source.

Legend:
[1] = system: nitric oxide (NO) production from RAW macrophages; assay: Griess assay for NO production by LPS-stimulated RAW macrophages; type: cell-based, murine; details: for NO production (relative to control), mean ± SE: LPS 1 μg/mL, 24 hours, n = 8, % of control
Description: (§1) RAW 264.7 murine monocyte/macrophages (ATCC TIB-71) were maintained in Dulbecco's Modified Eagle Medium (D-MEM, Invitrogen Corp., Carlsbad, Calif.) supplemented with 10% fetal bovine serum (FBS, Invitrogen Corp., Carlsbad, Calif.) and 1% streptomycin and were kept in a humidified 37° C. incubator with 5% CO2. Cells were subcultured by scraping when plates reached 90% confluency with a 1:5 ratio.
Down-regulation of various pro-inflammatory genes including iNOS, IL1β, and TNF-α can reduce nitric oxide production by macrophages. In order to confirm that changes in pro-inflammatory gene expression were affecting cellular function, the Griess assay was performed to indirectly measure nitric oxide production by LPS-induced macrophages by measuring nitrite (Misko et al., 1993). For the assay, RAW cells were plated in a 24-well plate at a minimum density of 0.4×10^6 cells/well and grown for 24 hours. A stock solution of AL-1 was created by completely dissolving dry extract as in Example 1 in 95% ethanol. Cells were stimulated with 1 μg/mL LPS with simultaneous addition of AL-1 (10-100 μg/mL), aspirin (10 mM), or vehicle control (0.5% ethanol), maintaining a final concentration of 0.5% ethanol for every treatment. After 24 hours, conditioned media (50 μl) was removed and immediately mixed with 100 μl of Griess reagent (10% sulfanilamide, 1% naphthalene-ethylenediamine dihydrochloride in 5% H3PO4, all from Sigma, St. Louis, Mo.). After incubation for 15 minutes at room temperature, the samples were read at 550 nm using a microplate spectrophotometer (Molecular Devices, Sunnyvale, Calif.). Data for each treatment were normalized based on results from an MTS cell proliferation assay.
A CellTiter 96 assay kit (Promega Corp. Madison, Wis.) was used to determine the relative number of viable cells remaining after incubation with treatments. For the assay, old media containing treatments or controls was removed from the 96-well plates and replaced with 100 μL fresh media per well. Next, 20 μL MTS/PMS reagent ([3-(4,5-dimethylthiazol-2-yl)-5-(3-carboxymethoxyphenyl)-2-(4-sulfophenyl)-2H-tetrazolium plus phenazine methosulfate) was added to each well followed by a three hour incubation period at 37° C., 5% CO2. Plates were read using a microplate reader (Molecular Devices, Sunnyvale, Calif.) at 490 nm. A blank row corrected for background noise and data was expressed as a percent of the LPS control. Each treatment was tested on three different plates with 8 wells on each plate for a total of 24 wells.

[2] = system: COX-2; assay: Quantitative real-time RT-PCR: COX-2 gene expression in LPS-elicited RAW 264.7 macrophages; type: cell-based, murine; details: for COX-2 gene expression (LPS control = 100; values less than 100 represent inhibition): Table 4 experiment
Description: as §1
Murine RAW macrophages 264.7 were plated at a density of 0.4×10^6 cells per well in 24-well plates 12 hours prior to treatment. A stock solution of AL-1 was created by completely dissolving the dry extract as in Example 1 in 95% ethanol. Two hours before elicitation with lipopolysaccharide (LPS, 1 μg/ml, Sigma, St. Louis, Mo.) the cells were treated with various concentrations of AL-1 (25-200 μg/ml) or vehicle control, maintaining a final concentration of 0.5% ethanol for all treatments. After six hours of treatment, RNA was extracted from cells using TRIzol® reagent (Invitrogen Corp., Carlsbad, Calif.) according to the manufacturer instructions. RNAs were quantified spectrophotometrically at 260 nm and stored at −80° C. until real-time PCR could be performed.
RNA was purified by treating with DnaseI (Invitrogen Corp., Carlsbad, Calif.) before performing reverse transcription with Stratascript Reverse Transcriptase, an RNA dependent DNA polymerase (Stratagene, La Jolla, Calif.) according to the manufacturer instructions. The cDNAs obtained were then amplified by real-time PCR. Expression of COX-2, iNOS, IL1β and β-actin gene expression levels was quantified using a Stratagene Mx 3000P™ Real-Time PCR System (Stratagene, La Jolla, Calif.). Primers for each gene were designed using Primer Express® version 2.0 software (Applied Biosystems, Foster City, Calif.; Table 2) (Giulietti et al., 2001; Overbergh et al., 2003).
Real-time PCR analyses were carried out using a Brilliant® SYBR® Green PCR master mix kit (Stratagene, La Jolla, Calif.) according to kit instructions. Samples were amplified using the following program: two minutes incubation at 50° C.; initial denaturation and polymerase activation at 95° C. for ten minutes; 40 PCR cycles consisting of 15 seconds at 95° C. and 60 seconds at 60° C. each. The RNA expression of the target genes were analyzed by ΔΔCT methods (Winer et al., 1999) using β-Actin gene as normalizer. The ΔΔCT values obtained from these analyses directly reflect the relative mRNA quantities for the marker gene in response to specific treatments. Lower ΔΔCT values indicate greater anti-inflammatory activity. The changes in gene expression as reflected by ΔΔCT values can also be expressed as percentage genetic inhibition [(1−ΔΔCT)×100] indicating anti-inflammatory properties of the test compounds. Amplification of specific transcripts was further confirmed by obtaining melting curve profiles. All samples were run in duplicate; four independent analyses were performed.

## CC1=CC(=O)C2=C(C)CC[C@@H]3[C@H](OC(=O)[C@H]3C)[C@@H]12 [leukomisin]
[1]; 20 μg/ml
  NO production (relative to control), mean ± SE: 82 ± 4 %
[1]; 50 μg/ml
  NO production (relative to control), mean ± SE: 72 ± 1 %
[1]; 100 μg/ml
  NO production (relative to control), mean ± SE: 64 ± 2 %
[1]; RAW macrophages elicited with LPS
  IC50, inhibition of NO production: 160 µg/mL
[1]; RAW macrophages elicited with LPS, molar value in brackets, read-out: IC50, inhibition of NO production
  pIC50: 3.19
[2]; 25 μg
  COX-2 gene expression (LPS control = 100; values less than 100 represent inhibition): 140
[2]; 50 μg
  COX-2 gene expression (LPS control = 100; values less than 100 represent inhibition): 165
[2]; 75 μg
  COX-2 gene expression (LPS control = 100; values less than 100 represent inhibition): 159
[2]; LPS-elicited RAW macrophages
  effect on COX-2 gene expression (in words): no affect on gene expression; also recorded: no activity

## CC1=CC(=O)C2=C(C)C[C@H](O)[C@@H]3[C@H](OC(=O)[C@H]3C)[C@@H]12 (single isomer, unassigned) [austricin]
[1]; 20 μg/ml
  NO production (relative to control), mean ± SE: 89 ± 1 %
[1]; 50 μg/ml
  NO production (relative to control), mean ± SE: 89 ± 1 %
[1]; 100 μg/ml
  NO production (relative to control), mean ± SE: 84 ± 2 %
[1]; Mus musculus, Macrophage, read-out: IC50, inhibition of NO production
  IC50: 440 µg/mL and 1.68 mM
[2]; 25 μg
  COX-2 gene expression (LPS control = 100; values less than 100 represent inhibition): 120
[2]; 50 μg
  COX-2 gene expression (LPS control = 100; values less than 100 represent inhibition): 116
[2]; 75 μg
  COX-2 gene expression (LPS control = 100; values less than 100 represent inhibition): 102
